What was measured:
[1] = tested on: M. tb; assay type: cell-based, Mycobacterium tuberculosis; settings: 5 μM concentration against M. tb during 72 h; FIGS. 4a and 4b
[2] = tested on: M. tb; test: colony-forming unit (CFU) assay to determine bacterial survival; assay type: cell-based, Mycobacterium tuberculosis; settings: compared to the parent OSU-03012 and the other derivatives; FIG. 1
[3] = tested on: M. smegmatis; assay type: cell-based; settings: compared to the parent OSU-03012 and the other derivatives; FIG. 1

Structure (SMILES) | in vitro antimycobacterial activity upon screening of cpd2-24 derivatives [1] | killing of M. tb (bacterial survival, CFU) [2] | killing of M. smegmatis (bacterial survival, CFU) [3]
CNC(=O)CCc1cc(-c2ccc(-c3ccc(C(F)(F)F)cc3)cc2)n(-c2ccc(NC(=O)c3cccnc3)cc2)n1 [cpd2-24-7, N-(4-(3-(3-(methylamino)-3-oxopropyl)-5-(4′-(trifluoromethyl)-[1,1′-biphenyl]-4-yl)-1H-pyrazol-1-yl)phenyl)nicotinamide] | particularly effective | – | –
CNC(=O)CCc1cc(-c2ccc(-c3ccc(C(F)(F)F)cc3)cc2)n(-c2ccc(NC(=O)N3CCOCC3)cc2)n1 [cpd2-24-3, N-(4-(3-(3-(methylamino)-3-oxopropyl)-5-(4′-(trifluoromethyl)-[1,1′-biphenyl]-4-yl)-1H-pyrazol-1-yl)phenyl)morpholine-4-carboxamide] | particularly effective | – | –
CNC(=O)CCc1cc(-c2ccc(-c3ccc(C(F)(F)F)cc3)cc2)n(-c2ccc(NC(=O)c3ccccn3)cc2)n1 [cpd2-24-6, N-(4-(3-(3-(methylamino)-3-oxopropyl)-5-(4′-(trifluoromethyl)-[1,1′-biphenyl]-4-yl)-1H-pyrazol-1-yl)phenyl)picolinamide] | particularly effective | – | –
NS(=O)(=O)Nc1ccc(-n2nc(C(F)(F)F)cc2-c2ccc3c(ccc4ccccc43)c2)cc1 [cpd-2] | – | significantly kill | significantly kill
CNC(=O)CCc1cc(-c2ccc(-c3ccc(C(F)(F)F)cc3)cc2)n(-c2ccc(NC(=O)c3ccncc3)cc2)n1 [cpd2-24-5, N-(4-(3-(3-(methylamino)-3-oxopropyl)-5-(4′-(trifluoromethyl)-[1,1′-biphenyl]-4-yl)-1H-pyrazol-1-yl)phenyl)isonicotinamide] | particularly effective | – | –

— patent publication US9457031B2, “Antibacterial protein kinase inhibitors” (priority 2012, dated 2016)
